Data on 13 compounds can be found in patent US8778959B2, “AZA-bridged ring-fused indoles and indolines” (AbbVie Inc., priority 2009, dated 2014).

Where only a bound is given, the exact number is not on record here.

Usually EC50 stands for the concentration giving half of the maximal effect.

In data set [1] the test system is primary postnatal (P0) cortical cells. Put plainly: Neurite Outgrowth Assay (Aβ1-42-treated cortical cells). The data set is classed as cell-based, rat. The following applies: n = 1; for % Attenuation Effect of 5 μM Aβ 1-42: 5 μM Aβ1-42; for Emax: Rattus norvegicus, maximum response relative to 300 nM dimebolin, at the concentration given, read-out: Maximum Effect (of % 300 nM Dimebolin) at Concentration; for Concentration (nM) of Maximum Effect: test compound concentration at which the maximum response was noted. As for the experimental part: In addition to PC12 cells, other cellular model systems may also be used. Rat cortical cells can be cultured and prepared for high content microscopy analysis as previously described (Hu, M.; Schurdak, M. E.; et al. High content screen microscopy analysis of Aβ1-42-induced neurite outgrowth reduction in rat primary cortical neurons: Neuroprotective effects of α7 neuronal nicotinic acetylcholine receptor ligands. Brain Res. 2007, 1151, 227-235). Briefly, cortical cell cultures are plated at density of 5×10^5 cells/mL onto poly-D-lysine coated 96-well plates and maintained in a cell incubator at 37° C. with 5% CO2. Experiments are performed using 6-7 day-old cortical cell cultures by treating with test compounds. In some experiments, the effect of test compounds on reversing Aβ toxicity can also be measured (Hu, M.; Schurdak, M. E.; et al. High content screen microscopy analysis of Aβ1-42-induced neurite outgrowth reduction in rat primary cortical neurons: Neuroprotective effects of α7 neuronal nicotinic acetylcholine receptor ligands. Brain Res. 2007, 1151, 227-235). For assessment of neuroprotective effects, cells are first pretreated with test compounds for about 5 hours. Medium is then replaced with the medium containing freshly prepared about 5 μM Aβ1-42 peptide in the absence or presence of the test compounds for 3 days. The untreated group contains the same percentage of vehicle (DMSO) as in the treatment groups. Cells are fixed with approximately 4% paraformaldehyde containing 0.5% Hoechst 33342 for about 15 minutes, followed by three washes using PBS (pH 7.4) and blocked with 10% donkey serum in PBS for 1 hour at room temperature. The cells are then incubated overnight at about 4° C. with mouse anti-tubulin monoclonal antibody (1:100) for staining neurons and rabbit anti-GFAP (1:1000) for staining glia. In the next day, cells are incubated with FITC-labeled anti-mouse and TRITC-labeled anti-rabbit antibodies (1:1000) for about 1 hour at room temperature. After fixing and staining the cells, nuclei (360/400 nm excitation and 465/300 nm emission filters), neuron (475/350 nm excitation and 535/400 nm emission filters) and glial cell (535 nm excitation and 610 nm emission filters) images are collected using the ImageExpress Micro automatic fluorescent microscopy system (Molecular Devices, Sunnyvale, Calif.) employing a Nikon 10× Plan Fluor objective and Cool Snap HQ CCD camera. The Neurite Outgrowth module in the MetaMorph Imaging software can be used to automatically count total cell number, number of neuron cells, and the extent of neurite outgrowth.
The neurite outgrowth observed for untreated cells is set to 100% response. Treatment of cells with compounds prior to and concomitantly with Aβ1-42 gave a neuroprotective effect with neurite outgrowth maintained or enhanced relative to untreated cells.

Data set [2] deals with SK-N-SH human neuroblastoma cells. As to the kind of experiment: Serum Deprivation/JC-1 Mitochondrial Membrane Potential (MMP) Assay. It counts as cell-based. The note with it: Homo sapiens, SK-N-SH, 18 h; for Emax: percent maximal intensity in JC-1 ratio normalized to peak value for 10 μM dimebolin, read-out: JC-1 max %; for EC50: serum deprivation ~18 hours, JC-1 ratio normalized to peak value for 10 μM dimebolin, single curve fit to mean of n=2-3. As for the experimental part:
SK-N-SH human neuroblastoma cells obtained from American Type Culture Collection (Rockville, Md.) were maintained in the log phase of growth in Minimal Essential Media (MEM), 10% heat inactivated fetal calf serum and 100 units/mL antibiotic-antimycotic (AA). Cells were cultured and maintained in a humidified incubator at 37° C. under 5% CO2 and 95% air. Cells were trypsinized (0.25%) and subcultured every 3 days and used from 15-18 passages. All cell culture supplies were obtained from Invitrogen (Carlsbad, Calif.).
SK-N-SH cells were plated 2-3 days in advance at a concentration of 50,000 cells/well onto collagen coated black-walled 96 well plates (Becton-Dickinson, Bedford, Mass.) in a total volume of 200 μL. On day of experimental treatment, the media containing serum was aspirated from each well and rinsed once with MEM/1% AA without serum. The cells then were incubated overnight in 100 μL of MEM/1% AA (no serum) with and without dimebolin or novel chemical entities overnight for ˜18 hours. The following day, JC-1 dye (5,5′,6,6′-tetrachloro-1,1′,3,3′-tetraethylbenzimidazolcarbocyanide) was diluted 1:10 into MEM media according to the JC-1 Mitochondrial Membrane Potential Assay Kit: (Cayman Chemical Company, Ann Arbor, Mich.) and then 10 μL of the JC-1 dye solution was added to each well. The plates were centrifuged for 5 minutes at 400×g at room temperature followed by 35 minute incubation at 37° C. The plates were washed twice with 200 μL of provided Assay Buffer followed an addition of 100 μL of Assay Buffer to each well. The plates were read with an excitation and emission of 560 nm and 595 nM for red fluorescence and with an excitation and emission of […] and 535 nM for green fluorescence to determine the final JC-1 value taking the red to green fluorescence ratio. This assay is based on change in mitochondrial membrane potential (MMP) using this lipophilic cationic dye, JC-1, by monitoring the changes in the ratio of red to green fluorescence as the MMP depolarizes. This change in MMP reflects the health of the cell with healthy, viable cells have a high JC-1 ratio and high MMP whereas apoptotic, unhealthy cells have a low JC-1 ratio or low MMP.
For the ability of compounds to reverse the stress due to serum deprivation and increase the JC-1 ratio, the percent maximal intensity in JC-1 ratio was normalized to that induced by the peak value for 10 μM dimebolin and plotted against the compound concentration to calculate EC50 values and to control for plate-to-plate variability. Concentration-response data were analyzed using GraphPad Prism (San Diego, Calif.); the EC50 values were derived from a single curve fit to the mean data of n=2-3, in duplicates.
All compounds were dissolved in dimethyl sulfoxide at 10 mM stock solutions and tested at a concentration that the dimethyl sulfoxide levels never exceeded 1%.

In data set [3] the test system is mouse model of multiple sclerosis. The following applies: in vivo administration; cited from earlier work.
The subject of data set [4] is patients with mild-to-moderate Alzheimer's disease. The note with it: cited from earlier work.
Data set [5] relates to primary rat cortical neurons. The note with it: comparable to that evoked by BDNF; cited from earlier work.

With `c1ccc(COc2cccc3c4c([nH]c23)C[C@H]2CCC[C@@H]4N2)cc1` (stereo in doubt) [Example 9, (7R*,11S*)-4-(benzyloxy)-6,7,8,9,10,11-hexahydro-5H-7,11-epiminocycloocta[b]indole], in data set [1], the “% Attenuation Effect of 5 μM Aβ 1-42” value was 45 (n = 1) %, the Emax was 115% and the “Concentration (nM) of Maximum Effect” value was 0.03 nM. For the same compound, in data set [2], the Emax was determined as 130% and the EC50 amounted to 6.03 µM.
Take `O=C1C=C(c2ccccc2)C(=O)N1c1cccc(Cl)c1` [1-(3-chlorophenyl)-3-phenyl-pyrrole-2,5-dione]: the “Development of the disease” value in data set [3] is reported as “significantly prevented the development of the disease”.
As to `Cc1ccc(/C=C/c2cccc3c4c([nH]c23)CC2CCC4N2C)cn1` (centres unmarked) [Example 1, 11-methyl-4-[(E)-2-(6-methylpyridin-3-yl)vinyl]-5,6,7,8,9,10-hexahydro-7,10-epiminocyclohepta[b]indole], in data set [1], the “% Attenuation Effect of 5 μM Aβ 1-42” value was 27 (n = 1) %, the Emax is 103% and the “Concentration (nM) of Maximum Effect” value was 0.3 nM. For the same compound, in data set [2], the Emax worked out at 214% and the EC50 stood at 3.19 µM.
For the compound `Cc1ccc(/C=C/c2cccc3c4c([nH]c23)CC2CNC4C2)cn1` (centres unmarked) [Example 30, 7-[(E)-2-(6-methylpyridin-3-yl)vinyl]-1,2,3,4,5,6-hexahydro-1,4-methanoazepino[4,3-b]indole], in data set [2], the Emax turned out to be 118% and the EC50 is 5.59 µM.
In the case of `c1cc(-c2ccncc2)c2[nH]c3c(c2c1)C1CCC(C3)N1` (centres unmarked) [Example 31, 4-(pyridin-4-yl)-5,6,7,8,9,10-hexahydro-7,10-epiminocyclohepta[b]indole], in data set [2], the Emax came out at 22.3% and the EC50 is above 31.6 µM.
On the same counts, the results for `c1ccc2ncc(-c3cccc4c5c([nH]c34)CC3CCC5N3)cc2c1` (centres unmarked) [Example 32, 4-(quinolin-3-yl)-5,6,7,8,9,10-hexahydro-7,10-epiminocyclohepta[b]indole] are 174% and 2.58 µM.
On the same counts, the results for `Cc1ccc(-c2cccc3c4c([nH]c23)CC2CCC4N2C)cn1` (centres unmarked) [Example 33, 11-methyl-4-(6-methylpyridin-3-yl)-5,6,7,8,9,10-hexahydro-7,10-epiminocyclohepta[b]indole] are 158% and 5.08 µM.
The corresponding values for `CN1C2CCC1c1c([nH]c3c(-c4cnc5ccccc5c4)cccc13)C2` (centres unmarked) [Example 34, 11-methyl-4-(quinolin-3-yl)-5,6,7,8,9,10-hexahydro-7,10-epiminocyclohept[b]indole] are 189% and 1.34 µM.
For the compound `c1cncc(-c2cccc3c4c([nH]c23)CC2CCC4N2)c1` (centres unmarked) [Example 35, 4-(pyridin-3-yl)-5,6,7,8,9,10-hexahydro-7,10-epiminocyclohepta[b]indole], in data set [2], the Emax was 87.2% and the EC50 amounted to 11 µM.
For `COC(=O)N1C2CCC1c1c([nH]c3c(-c4cnc5ccccc5c4)cccc13)C2` (centres unmarked) [Example 36, methyl 4-(quinolin-3-yl)-5,6,7,8,9,10-hexahydro-7,10-epiminocyclohepta[b]indole-11-carboxylate], in data set [2], the Emax was found to be 140% and the EC50 amounted to 1.13 µM.
In the case of `Cc1ccc(-c2cccc3c4c([nH]c23)CC2CNC4C2)cn1` (centres unmarked) [Example 37, 7-(6-methylpyridin-3-yl)-1,2,3,4,5,6-hexahydro-1,4-methanoazepino[4,3-b]indole], in data set [2], the Emax was determined as 131% and the EC50 amounted to 7.33 µM.
On to `Cc1ccc(C#Cc2cccc3c4c([nH]c23)CC2CNC4C2)cn1` (centres unmarked) [Example 38, 7-[(6-methylpyridin-3-yl)ethynyl]-1,2,3,4,5,6-hexahydro-1,4-methanoazepino[4,3-b]indole], for which, in data set [2], the Emax was determined as 120% and the EC50 turned out to be 5.88 µM.
With `Cc1ccc2c(c1)c1c(n2CCc2ccc(C)nc2)CCN(C)C1` [dimebolin, 2,3,4,5-tetrahydro-2,8-dimethyl-5-[2-(6-methyl-3-pyridinyl)ethyl]-1H-pyrido[4,3-b]indole], the “Clinical course of disease (ADAS-Cog, improvement over baseline)” value in data set [4] (20 mg three times a day (60 mg/day)) is “significant improvement”. Also, the “Most frequent adverse event” value in data set [4] (reported clinical studies) is “dry mouth”. The Neurite outgrowth entry in data set [5] is reported as “increase neurite outgrowth”.
